The source of these data is BindingDB's records for doi:10.1016/j.bmcl.2003.11.033 (University of California, 2004).

The target in the test is Tyrosinase (Agaricus bisporus). As to the kind of experiment: Inhibitory activity was evaluated against the oxidation of L-3,4-dihydroxyphenylalanine (L-DOPA) catalyzed by mushroom tyrosinase.

Structures are written as SMILES. pIC50: −log10 of the molar value.

A word on the pIC50: it is −log10 of the IC50, conventionally taken in molar units. A high value points to a small IC50. As to `COc1ccc(C=O)c(O)c1` [2-hydroxy-4-methoxybenzaldehyde], the pIC50 is 4.52.
